According to publication PMC7764795, “Physiological Response of Corynebacterium glutamicum to Indole” (Microorganisms, 2020):

Target: T1, Cg3388 (IhtR) (Corynebacterium glutamicum, UniProt Q8NL89)
T1 construct: gene Cgl3059; Cg3388 with N-terminal His-tag kept (pET16b-cg3388), E. coli BL21(DE3), Ni-NTA
T1 sequence (Q8NL89 1-287): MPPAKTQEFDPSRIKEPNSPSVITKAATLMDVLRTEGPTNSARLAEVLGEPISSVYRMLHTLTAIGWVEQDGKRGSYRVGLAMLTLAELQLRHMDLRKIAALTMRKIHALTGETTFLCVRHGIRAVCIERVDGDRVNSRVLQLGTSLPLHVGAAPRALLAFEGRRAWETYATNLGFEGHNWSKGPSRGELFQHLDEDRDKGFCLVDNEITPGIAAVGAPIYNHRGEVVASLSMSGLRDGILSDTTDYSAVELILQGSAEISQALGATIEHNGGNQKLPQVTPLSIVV
Assay: EMSA, release of target DNA by effector
Assay type: binding
Settings: threshold, not a constant; Cg3388 in 153-fold molar excess over 45 ng cg3388-iolT2 intergenic DNA; pH 7.5, 10 mM MgCl2, room temperature; effector (inducer) of repressor

| SMILES | concentration above which DNA binding is interfered with |
| --- | --- |
| Oc1ccc(O)c(O)c1 [1,2,4-trihydroxybenzene] | > 0.05 mM |
| Oc1ccc(O)cc1 [hydroquinone] | > 0.5 mM |
| c1ccc2[nH]ccc2c1 [indole] | > 4 mM |
